Measured values published in patent US7601674B2, “α-oxygenated or α-thiolated carboxylic acid phenethylamide derivatives” (priority 2001, dated 2009).

Tests used:
Format in all cases: in vivo
Plasmopara viticola [1] = assay: D-1a Action against Plasmopara viticola on vines, residual-protective action; settings: vine seedlings, test D-1a residual-protective, untreated plants attack 80-100%, read-out: inhibition of fungal infestation
Protocol: (§1) D-1: Action Against Plasmopara viticola on Vines
(§2) a) Residual-protective Action
Vine seedlings are sprayed at the 4- to 5-leaf stage with a spray mixture (0.02% active ingredient) prepared from a wettable powder formulation of the test compound. After 24 hours, the treated plants are infected with a sporangia suspension of the fungus. Fungus infestation is evaluated after incubation for 6 days at 95-100% relative humidity and +20° C.

Phytophthora [2] = assay: D-2a Action against Phytophthora on tomato plants, residual-protective action; settings: test D-2a residual-protective, untreated plants attack 80-100%, read-out: inhibition of fungal infestation
Protocol: (§3) D-2: Action Against Phytophthora on Tomato Plants
as §2
After a cultivation period of 3 weeks, tomato plants are sprayed with a spray mixture (0.02% active ingredient) prepared from a wettable powder formulation of the test compound. After 48 hours, the treated plants are infected with a sporangia suspension of the fungus. Fungus infestation is evaluated after incubation of the infected plants for 5 days at 90-100% relative humidity and +20° C.

Plasmopara viticola [3] = assay: D-1b Action against Plasmopara viticola on vines, residual-curative action; settings: vine seedlings, test D-1b residual-curative, untreated plants attack 80-100%, read-out: inhibition of fungal infestation
Protocol: as §1
b) Residual-curative Action
Vine seedlings are infected at the 4- to 5-leaf stage with a sporangia suspension of the fungus. After incubation for 24 hours in a humidity chamber at 95-100% relative humidity and […], the infected plants are dried and sprayed with a spray mixture (0.02% active ingredient) prepared from a wettable powder formulation of the test compound. After the spray coating has dried, the treated plants are placed in the humidity chamber again. Fungus infestation is evaluated 6 days after infection.

Phytophthora [4] = assay: D-2b Action against Phytophthora on tomato plants, systemic action; settings: test D-2b systemic (soil drench), untreated plants attack 80-100%, read-out: inhibition of fungal infestation
Protocol: as §3
After a cultivation period of 3 weeks, tomato plants are watered with a spray mixture (0.02% active ingredient based on the volume of the soil) prepared from a wettable powder formulation of the test compound. […] After 96 hours, the treated plants are infected with a sporangia suspension of the fungus. Fungus infestation is evaluated after incubation of the infected plants for 4 days at 90-100% relative humidity and +20° C.

Phytophthora [5] = assay: D-3a Action against Phytophthora on potato plants, residual-protective action; settings: potato plants (Bintje), test D-3a residual-protective, untreated plants attack 80-100%, read-out: inhibition of fungal infestation
Protocol: (§4) D-3: Action Against Phytophthora on Potato Plants
as §2
2-3 week old potato plants (Bintje variety) are sprayed with a spray mixture (0.02% active ingredient) prepared from a wettable powder formulation of the test compound. After 48 hours, the treated plants are infected with a sporangia suspension of the fungus. Fungus infestation is evaluated after incubation of the infected plants for 4 days at 90-100% relative humidity and +20° C.

Phytophthora [6] = assay: D-3b Action against Phytophthora on potato plants, systemic action; settings: potato plants (Bintje), test D-3b systemic (soil drench), untreated plants attack 80-100%, read-out: inhibition of fungal infestation
Protocol: as §4
2-3 week old potato plants (Bintje variety) are watered with a spray mixture (0.02% active ingredient based on the volume of the soil) prepared from a wettable powder formulation of the test compound. […] After 48 hours, the treated plants are infected with a sporangia suspension of the fungus. Fungus infestation is evaluated after incubation of the infected plants for 4 days at 90-100% relative humidity and +20° C. Fungal infestation is effectively controlled with compounds of Tables 1 to 64.

Measured: inhibition at 200 ppm

C#CCOc1ccc(CCNC(=O)C(O)COc2ccc(Cl)cc2)cc1OC (stereo not shown) [Compound E1.24, 3-(4-Chloro-phenoxy)-2-hydroxy-N-[2-(3-methoxy-4-prop-2-ynyloxy-phenyl)-ethyl]-propionamide]
80 to 100%: Plasmopara viticola [1] | Phytophthora [2] | Plasmopara viticola [3] | Phytophthora [4]

C#CCOc1ccc(CCNC(=O)C(COc2ccc(Cl)cc2)OCC#C)cc1OC (stereo not shown) [Compound E1.26]
80 to 100%: all assays above
